Assay results taken from ChEMBL document CHEMBL4041467, “Synthesis of novel 15-membered 8a-azahomoerythromycin A acylides: Consequences of structural modification at the C-3 and C-6 position on antibacterial activity” (Eur J Med Chem, 2017).
In brackets after ≈: the same amount, converted by molar mass.

Key:
Haemophilus influenzae = experiment: Antibacterial activity against Haemophilus influenzae by agar microdilution method; assay type: functional
Staphylococcus aureus [1] = experiment: Potency index, ratio of clarithromycin ED50 to compound ED50 for erythromycin susceptible Staphylococcus aureus infected in mouse; assay type: functional
[2] = Tmax in Han Wistar rat at 20 mg/kg, po by LC-MS/MS analysis; assay type: ADME, organism-based; settings: in vivo
[3] = AUC(0 to infinity) in Han Wistar rat at 20 mg/kg, po by LC-MS/MS analysis; assay type: ADME, organism-based; set-up: dose 20 mg/kg, time infinity, route oral; settings: in vivo
Streptococcus pneumoniae [4] = experiment: Antibacterial activity against Mef-mediated macrolide efflux resistant Streptococcus pneumoniae by agar microdilution method; assay type: functional
[5] = Metabolic stability in rat liver microsomes assessed as parent compound remaining at 1 uM after 60 mins in presence of NADP by LC-MS/MS analysis; assay type: ADME, microsome; settings: read-out: Stability
[6] = Terminal half life in Han Wistar rat at 10 mg/kg, iv by LC-MS/MS analysis; assay type: ADME, organism-based; settings: in vivo, read-out: beta t1/2 (converted)
[7] = AUC(0 to t) in Han Wistar rat at 20 mg/kg, po by LC-MS/MS analysis; assay type: ADME, organism-based; settings: in vivo
Streptococcus pneumoniae [8] = experiment: Antibacterial activity against erythromycin susceptible Streptococcus pneumoniae by agar microdilution method; assay type: functional
Streptococcus pyogenes [9] = experiment: Antibacterial activity against erythromycin susceptible Streptococcus pyogenes by agar microdilution method; assay type: functional
Staphylococcus aureus [10] = experiment: Antibacterial activity against constitutively macrolide/lincosamide/streptogramin B-resistant Staphylococcus aureus by agar microdilution method; assay type: functional
Streptococcus pneumoniae [11] = experiment: Antibacterial activity against constitutively macrolide/lincosamide/streptogramin B-resistant Streptococcus pneumoniae by agar microdilution method; assay type: functional
[12] = AUC(0 to t) in Han Wistar rat at 10 mg/kg, iv by LC-MS/MS analysis; assay type: ADME, organism-based; settings: in vivo
Streptococcus pneumoniae [13] = experiment: Antibacterial activity against erythromycin susceptible Streptococcus pneumoniae infected in mouse assessed as increase in mouse survival administered orally 1 hr post infection; assay type: functional; settings: po
Rattus norvegicus = experiment: Unbound clearance in Han Wistar rat at 10 mg/kg, iv by LC-MS/MS analysis; assay type: ADME, organism-based; settings: in vivo
Staphylococcus aureus [14] = experiment: Antibacterial activity against erythromycin susceptible Staphylococcus aureus by agar microdilution method; assay type: functional
[15] = Fraction unbound in Han Wistar rat plasma at 10 mg/kg, iv by LC-MS/MS analysis; assay type: ADME, organism-based
Staphylococcus aureus [16] = experiment: Antibacterial activity against inducibly macrolide/lincosamide/streptogramin B-resistant Staphylococcus aureus by agar microdilution method; assay type: functional
[17] = AUC(0 to infinity) in Han Wistar rat at 10 mg/kg, iv by LC-MS/MS analysis; assay type: ADME, organism-based; set-up: dose 10 mg/kg, route intravenous, time infinity; settings: in vivo
Liver [18] = experiment: Intrinsic clearance in rat liver microsomes at 1 uM after 60 mins in presence of NADP by LC-MS/MS analysis; assay type: ADME, microsome; settings: 1 h
[19] = Metabolic stability in human liver microsomes assessed as parent compound remaining at 1 uM after 60 mins in presence of NADP by LC-MS/MS analysis; assay type: ADME, microsome; settings: read-out: Stability
[20] = (§1) Protein binding in human plasma at 1 ug/ml by LC-MS/MS analysis; assay type: ADME, cell-free; settings: read-out: PPB (converted)
[21] = Cmax in Han Wistar rat at 10 mg/kg, iv by LC-MS/MS analysis; assay type: ADME, organism-based; set-up: dose 10 mg/kg, route intravenous; settings: in vivo
[22] = Protein binding in mouse plasma at 1 ug/ml by LC-MS/MS analysis; assay type: ADME, cell-free; settings: read-out: PPB (converted)
[23] = Protein binding in rat plasma at 1 ug/ml by LC-MS/MS analysis; assay type: ADME, cell-free; settings: read-out: PPB (converted)
[24] = Metabolic stability in mouse liver microsomes assessed as parent compound remaining at 1 uM after 60 mins in presence of NADP by LC-MS/MS analysis; assay type: ADME, microsome; settings: read-out: Stability
Staphylococcus aureus [25] = experiment: Antibacterial activity against erythromycin susceptible Staphylococcus aureus infected in mouse assessed as increase in mouse survival administered orally 1 hr post infection; assay type: functional; settings: po
Streptococcus pyogenes [26] = experiment: Antibacterial activity against Mef-mediated macrolide efflux resistant Streptococcus pyogenes by agar microdilution method; assay type: functional
Streptococcus pneumoniae [27] = experiment: Potency index, ratio of clarithromycin ED50 to compound ED50 for erythromycin susceptible Streptococcus pneumoniae infected in mouse; assay type: functional
[28] = Volume of distribution at steady state in Han Wistar rat at 10 mg/kg, iv by LC-MS/MS analysis; assay type: ADME, organism-based; settings: in vivo, read-out: Vdss
[29] = Oral bioavailability in Han Wistar rat at 20 mg/kg by LC-MS/MS analysis; assay type: ADME, organism-based; settings: in vivo
Plasma [30] = experiment: Stability in rat plasma at 1 uM up to 120 mins by LC-MS/MS analysis; assay type: ADME, cell-free; settings: 2 h
[31] = Clearance in Han Wistar rat at 10 mg/kg, iv by LC-MS/MS analysis; assay type: ADME, organism-based; settings: in vivo
Liver [32] = experiment: Intrinsic clearance in human liver microsomes at 1 uM after 60 mins in presence of NADP by LC-MS/MS analysis; assay type: ADME, microsome; settings: 1 h
[33] = Cmax in Han Wistar rat at 20 mg/kg, po by LC-MS/MS analysis; assay type: ADME, organism-based; set-up: dose 20 mg/kg, route oral; settings: in vivo
Streptococcus pyogenes [34] = experiment: Antibacterial activity against constitutively macrolide/lincosamide/streptogramin B-resistant Streptococcus pyogenes by agar microdilution method; assay type: functional
Liver [35] = experiment: Intrinsic clearance in mouse liver microsomes at 1 uM after 60 mins in presence of NADP by LC-MS/MS analysis; assay type: ADME, microsome; settings: 1 h
[36] = AUC(0 to infinity) in Han Wistar rat at 30 mg/kg, po by LC-MS/MS analysis; assay type: ADME, organism-based; set-up: dose 30 mg/kg, time infinity, route oral; settings: in vivo
Plasma [37] = experiment: Drug uptake in Han Wistar rat plasma at 10 mg/kg, iv up to 8 hrs by LC-MS/MS analysis; assay type: ADME, organism-based; settings: in vivo
[38] = AUC(0 to t) in Han Wistar rat at 30 mg/kg, po by LC-MS/MS analysis; assay type: ADME, organism-based; settings: in vivo
[39] = Cmax in Han Wistar rat at 30 mg/kg, po by LC-MS/MS analysis; assay type: ADME, organism-based; set-up: dose 30 mg/kg, route oral; settings: in vivo
Plasma [40] = experiment: Drug uptake in Han Wistar rat plasma at 30 mg/kg, po up to 4 hrs by LC-MS/MS analysis; assay type: ADME, organism-based; settings: in vivo
[41] = Oral bioavailability in Han Wistar rat at 30 mg/kg by LC-MS/MS analysis; assay type: ADME, organism-based; settings: in vivo
[42] = Tmax in Han Wistar rat at 30 mg/kg, po by LC-MS/MS analysis; assay type: ADME, organism-based; settings: in vivo
Plasma [43] = experiment: as §1; assay type: ADME, cell-free

CC[C@H]1OC(=O)[C@H](C)[C@@H](OC(=O)CCNCCNc2cc3c(=O)c(C(=O)O)cn(C4CC4)c3cc2Cl)[C@H](C)[C@@H](O[C@@H]2O[C@H](C)C[C@H](N(C)C)[C@H]2O)[C@](C)(OC/C=C/c2cnc3ccccc3c2)C[C@@H](C)NC(=O)[C@H](C)[C@@H](O)[C@]1(C)O
MIC (Haemophilus influenzae): 1 mg/L (≈ 0.882 µM) | Ratio ED50 (Staphylococcus aureus [1]): 4 | Tmax [2]: 3.3 h | AUC(0-inf) [3]: 7.5 µg·h/mL | MIC (Streptococcus pneumoniae [4]): ≤ 0.125 mg/L | remaining at 1 h, 1 µM [5]: 100% | half-life [6]: 4.3 h | AUC(0-t) [7]: 2.04 to 9.73 µg·h/mL | MIC (Streptococcus pneumoniae [8]): ≤ 0.06 mg/L | MIC (Streptococcus pyogenes [9]): ≤ 0.06 mg/L | MIC (Staphylococcus aureus [10]): > 64 mg/L | MIC (Streptococcus pneumoniae [11]): ≤ 0.125 mg/L | AUC(0-t) [12]: 4.8 to 10 µg·h/mL | ED50 (Streptococcus pneumoniae [13]): 4.5 mg/kg | CL free (Rattus norvegicus): 2.9 L/h/kg | MIC (Staphylococcus aureus [14]): ≤ 0.125 mg/L | fraction unbound [15]: 0.42 | MIC (Staphylococcus aureus [16]): 0.25 mg/L (≈ 0.221 µM) | AUC(0-inf) [17]: 8.51 µg·h/mL | CLH (Liver [18]): < 0.6 mL/min/g | remaining at 1 h, 1 µM [19]: 100% | fraction unbound at 1 ug/ml [20]: 0.4 | Cmax [21]: 2.48 µg/mL | fraction unbound at 1 ug/ml [22]: 0.3 | fraction unbound at 1 ug/ml [23]: 0.42 | remaining at 1 h, 1 µM [24]: 100% | ED50 (Staphylococcus aureus [25]): 6 mg/kg | MIC (Streptococcus pyogenes [26]): 0.25 mg/L (≈ 0.221 µM) | Ratio ED50 (Streptococcus pneumoniae [27]): 6 | Vd [28]: 6.7 L/kg | bioavailability [29]: 41.8% | Stability (Plasma [30]): Stable | clearance [31]: 1.22 L/h/kg | CLH (Liver [32]): < 0.6 mL/min/g | Cmax [33]: 0.63 µg/mL | MIC (Streptococcus pyogenes [34]): 4 mg/L (≈ 3.53 µM) | CLH (Liver [35]): < 0.6 mL/min/g

C=CCO[C@]1(C)C[C@@H](C)NC(=O)[C@H](C)[C@@H](O)[C@](C)(O)[C@@H](CC)OC(=O)[C@H](C)[C@@H](OC(=O)CCNCCNc2cc3c(=O)c(C(=O)O)cn(C4CC4)c3cc2Cl)[C@H](C)[C@H]1O[C@@H]1O[C@H](C)C[C@H](N(C)C)[C@H]1O
MIC (Haemophilus influenzae): 2 mg/L (≈ 1.99 µM) | remaining at 1 h, 1 µM [5]: 100% | half-life [6]: 1.6 h | AUC(0-inf) [36]: 0.51 µg·h/mL | MIC (Streptococcus pneumoniae [8]): ≤ 0.125 mg/L | MIC (Streptococcus pyogenes [9]): ≤ 0.125 mg/L | MIC (Staphylococcus aureus [10]): > 64 mg/L | MIC (Streptococcus pneumoniae [11]): 1 mg/L (≈ 0.993 µM) | AUC(0-t) [12]: 2.45 to 5.34 µg·h/mL | ED50 (Streptococcus pneumoniae [13]): 46.5 mg/kg | Drug uptake (Plasma [37]): Active | AUC(0-t) [38]: 0.05 to 0.52 µg·h/mL | CL free (Rattus norvegicus): 4.26 L/h/kg | MIC (Staphylococcus aureus [14]): ≤ 0.125 mg/L | fraction unbound [15]: 0.63 | MIC (Staphylococcus aureus [16]): 0.25 mg/L (≈ 0.248 µM) | AUC(0-inf) [17]: 4.08 µg·h/mL | CLH (Liver [18]): < 0.6 mL/min/g | remaining at 1 h, 1 µM [19]: 99% | fraction unbound at 1 ug/ml [20]: 0.51 | Cmax [21]: 3.87 µg/mL | fraction unbound at 1 ug/ml [22]: 0.45 | fraction unbound at 1 ug/ml [23]: 0.63 | remaining at 1 h, 1 µM [24]: 100% | ED50 (Staphylococcus aureus [25]): 26.5 mg/kg | MIC (Streptococcus pyogenes [26]): 0.25 mg/L (≈ 0.248 µM) | Cmax [39]: 0.44 µg/mL | Drug uptake (Plasma [40]): Active | Vd [28]: 3.2 L/kg | Stability (Plasma [30]): Stable | clearance [31]: 2.68 L/h/kg | CLH (Liver [32]): < 0.6 mL/min/g | MIC (Streptococcus pyogenes [34]): 4 mg/L (≈ 3.97 µM) | CLH (Liver [35]): < 0.6 mL/min/g | bioavailability [41]: 4.9% | Tmax [42]: 0.31 h

CC[C@H]1OC(=O)[C@H](C)[C@@H](O[C@H]2C[C@@](C)(OC)[C@@H](O)[C@H](C)O2)[C@H](C)[C@@H](O[C@@H]2O[C@H](C)C[C@H](N(C)C)[C@H]2O)[C@](C)(OC)C[C@@H](C)C(=O)[C@H](C)[C@@H](O)[C@]1(C)O [CLARITHROMYCIN]
remaining at 1 h, 1 µM [5]: 92.5% | ED50 (Streptococcus pneumoniae [13]): 27.2 to 34.6 mg/kg | remaining at 1 h, 1 µM [19]: 91% | PPB (Plasma [43]): 11% | fraction unbound at 1 ug/ml [22]: 0.88 | fraction unbound at 1 ug/ml [23]: 1 | remaining at 1 h, 1 µM [24]: 100% | ED50 (Staphylococcus aureus [25]): 22.4 to 24.8 mg/kg
